From ChEMBL document CHEMBL4138238, “A minimalistic approach to develop new anti-apicomplexa polyamines analogs” (Eur J Med Chem, 2018)
pIC50: −log10 of the molar value. Activity calls are given as the source filed them. No cut-off for these calls is given here.

Experiments:
Plasmodium falciparum [1] = experiment: microbe, parasite or virus in culture; details: D6, 48 h
[2] = Selectivity index, ratio of IC50 for African green monkey Vero cells to IC50 for chloroquine-resistant Plasmodium falciparum W2; assay type: toxicity; details: read-out: Ratio IC50
Plasmodium falciparum [3] = experiment: microbe, parasite or virus in culture; details: W2, 48 h
[4] = Selectivity index, ratio of IC50 for African green monkey Vero cells to IC50 for chloroquine-sensitive Plasmodium falciparum D6; assay type: toxicity; details: read-out: Ratio IC50
Vero = experiment: Cytotoxicity against African green monkey Vero cells assessed as reduction in cell viability after 48 hrs; assay type: cell-based; details: Chlorocebus sabaeus
Toxoplasma gondii [5] = experiment: Growth inhibition of GFP-fused Toxoplasma gondii RH infected in HFF at 1 uM after 3 days by fluorescence microscopic method relative to control; assay type: functional; details: for inhibition of growth at 1 µM: 72 h, read-out: GI
Toxoplasma gondii [6] = experiment: Antiparasitic activity against Toxoplasma gondii RH infected in HFF treated at 4 hrs post infection measured at 5 days post infection by crystal violet staining based method; assay type: functional, organism-based
HFF = experiment: Cytotoxicity against HFF cells at 10 uM; assay type: cell-based; details: human

Structure (SMILES) | pIC50 (Plasmodium falciparum [1]) | selectivity ratio [2] | pIC50 (Plasmodium falciparum [3]) | selectivity ratio [4] | IC50 (Vero) [µg/mL] | inhibition of growth at 1 µM (Toxoplasma gondii [5]) [%] | growth inhibition (GI) (Toxoplasma gondii [5]) | pIC50 (Vero) | pIC50 (Toxoplasma gondii [6]) | Activity (HFF)
COc1cc(CNCCCCCCCCCCNCc2ccc(OCc3ccccc3)c(OC)c2)ccc1OCc1ccccc1 | 5.95 | > 7.2 | 5.98 | > 6.8 | > 4.46 | 25 | – | – | – | –
COc1cc(CNCCCCCCCCCCCCNCc2ccc(OCc3ccccc3)c(OC)c2)ccc1OCc1ccccc1 | 5.89 | > 5.3 | 5.86 | > 5.67 | > 4.46 | 25 | – | – | – | –
COc1ccc(CNCCCCCCNCc2ccc(OC)cc2)cc1 | 5.51 | 2.5 | 5.47 | 2.4 | – | 25 | – | – | – | –
COc1ccc(CNCCCCCCCCNCc2ccc(OC)cc2)cc1 | 5.83 | > 7.3 | 5.77 | > 8.4 | > 4.46 | 25 | – | – | – | –
COc1ccc(CNCCCCCCCCCCNCc2ccc(OC)c(O)c2)cc1O | 5.71 | > 5.7 | 5.73 | > 5.41 | > 4.46 | 25 | – | – | – | –
CCc1nc(N)nc(N)c1-c1ccc(Cl)cc1 | – | – | – | – | – | – | inactive | – | – | –
COc1ccc(CNCCCCNCc2ccc(OC)c(O)c2)cc1O | < 5.10 | – | < 5.10 | – | > 4.46 | 75 | – | – | – | –
COc1ccc(CNCCCNCc2ccc(OC)c(O)c2)cc1O | < 5.10 | – | < 5.10 | – | > 4.46 | – | – | – | – | –
COc1ccc(CNCCCCCCCCCCNCc2ccc(OC)cc2)cc1 | 6.22 | > 17 | 6.17 | > 19 | > 4.46 | 50 | – | – | – | –
COc1cc(CNCCCCCCNCc2ccc(OCc3ccccc3)c(OC)c2)ccc1OCc1ccccc1 | 6.59 | > 19 | 6.36 | > 31.7 | > 4.46 | 25 | – | – | – | –
COc1cc(CNCCCCCCCCNCc2ccc(OCc3ccccc3)c(OC)c2)ccc1OCc1ccccc1 | 6.51 | 10.5 | 6.37 | 14.6 | – | – | inactive | 5.34 | – | –
COc1ccc(CNCCCCCCCCCCCCNCc2ccc(OC)cc2)cc1 | 5.80 | > 5.8 | 5.73 | > 6.8 | > 4.46 | 75 | – | – | – | –
C[C@@H]1CC[C@H]2[C@@H](C)C(=O)O[C@@H]3O[C@@]4(C)CC[C@@H]1[C@]32OO4 [ARTEMISININ] | 7.03 | – | 7.03 | – | – | – | – | – | – | –
COc1ccc(CNCCCCCCCCCCCCNCc2ccc(OC)c(O)c2)cc1O | 5.71 | > 3.5 | 5.54 | > 5.1 | > 4.46 | 25 | – | – | – | –
COc1ccc(CNCCCCNCc2ccc(OC)cc2)cc1 | 5.34 | > 2.2 | 5.17 | > 3.2 | > 4.46 | 25 | – | – | – | –
COc1ccc(CNCCCCCCNCc2ccc(OC)c(O)c2)cc1O | < 5.10 | – | < 5.10 | – | > 4.46 | 50 | – | – | – | –
COc1ccc(CNCCCNCc2ccc(OC)cc2)cc1 | 5.50 | > 2.8 | 5.27 | > 4.8 | > 4.46 | 50 | – | – | – | –
COc1cc(CNCCCNCc2ccc(OCc3ccccc3)c(OC)c2)ccc1OCc1ccccc1 | 6.38 | – | 6.33 | – | – | 100 | – | – | 5.82 | Non-Toxic
COc1cc(CNCCCCNCc2ccc(OCc3ccccc3)c(OC)c2)ccc1OCc1ccccc1 | 6.48 | > 18.4 | 6.31 | > 27.4 | > 4.46 | 50 | – | – | – | –
c1ccc(CNCCCNCc2ccccc2)cc1 | 5.63 | > 7.1 | 5.58 | > 7.9 | > 4.46 | 25 | – | – | – | –
COc1ccc(CNCCCCCCCCNCc2ccc(OC)c(O)c2)cc1O | 5.32 | > 2.1 | 5.26 | > 2.38 | > 4.46 | 25 | – | – | – | –
